Assay results published in publication PMC9217908, “Screening of commonly prescribed drugs for effects on the CAT1-mediated transport of L-arginine and arginine derivatives” (Amino Acids, 2022).
Where two headings read alike, the source gives them in different places.

Experiments:
Test in all cases: cell-based
[1] = target: T1, CAT1 (cationic amino acid transporter 1, CAT1/SLC7A1) (Homo sapiens, UniProt P30825); parameters: species or system HEK-CAT1 (HEK293 stably transfected); Inhibition of net CAT1-mediated [3H]-L-arginine (100 uM) uptake, 5 min, scintillation counting, vector control subtracted; conditions: HEK293, L-arginine 100 uM as substrate; for inhibition at 20 µM: read-out: % Inhibition of L-arginine uptake at 20 µM; for inhibition at 200 µM: read-out: % Inhibition of L-arginine uptake at 200 µM
T1 construct: full-length human transporter stably transfected in HEK cells (HEK-CAT1); net uptake against HEK-VC vector control cells
Summary of the method: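 HEK-CAT1 and vector-control HEK-VC cells took up [3H]-L-arginine (100 μM) for 5 min, with or without drug at 20 or 200 µM; [3H]-L-homoarginine or [3H]-ADMA uptake ran 2.5 min. Net uptake is CAT1 minus VC cells, and inhibition (%) = 100 − (V/V0 × 100). Negative values mean stimulated uptake.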

[2] = target: T1, CAT1 (cationic amino acid transporter 1, CAT1/SLC7A1); parameters: species or system HEK-CAT1 (HEK293 stably transfected); Inhibition of net CAT1-mediated [3H]-L-homoarginine (1 uM) uptake, 2.5 min, scintillation counting, vector control subtracted; conditions: HEK293, L-homoarginine 1 uM as substrate; for inhibition at 20 µM: read-out: % Inhibition of L-homoarginine uptake at 20 µM; for inhibition at 200 µM: read-out: % Inhibition of L-homoarginine uptake at 200 µM
Summary of the method: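 HEK-CAT1 cells with HEK-VC vector controls; [3H]-L-homoarginine (1 μM) uptake over 2.5 min with or without test compound at 20 µM or 200 µM. Net CAT1 uptake (CAT1 minus VC) gives inhibition (%) = 100 – (V/V0 × 100). Negative values mean stimulated uptake; n = 6–9 from at least two independent experiments.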

[3] = target: T1, CAT1 (cationic amino acid transporter 1, CAT1/SLC7A1); parameters: species or system HEK-CAT1 (HEK293 stably transfected); Inhibition of net CAT1-mediated [3H]-ADMA (1 uM) uptake, 2.5 min, scintillation counting, vector control subtracted; conditions: HEK293, ADMA 1 uM as substrate; for inhibition at 20 µM: read-out: % Inhibition of ADMA uptake at 20 µM; for inhibition at 200 µM: read-out: % Inhibition of ADMA uptake at 200 µM
Summary of the method: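 HEK cells expressing CAT1 and vector-control cells took up [^3H]-L-arginine for 5 min, or [^3H]-L-homoarginine or [^3H]-ADMA (1 μM) for 2.5 min, with or without drug at 20 or 200 µM. Net CAT1 uptake was CAT1 cells minus control cells, and inhibition (%) = 100 − V/V0×100. Negative values mean stimulation; n = 6–9.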

T1 sequence (P30825 whole entry): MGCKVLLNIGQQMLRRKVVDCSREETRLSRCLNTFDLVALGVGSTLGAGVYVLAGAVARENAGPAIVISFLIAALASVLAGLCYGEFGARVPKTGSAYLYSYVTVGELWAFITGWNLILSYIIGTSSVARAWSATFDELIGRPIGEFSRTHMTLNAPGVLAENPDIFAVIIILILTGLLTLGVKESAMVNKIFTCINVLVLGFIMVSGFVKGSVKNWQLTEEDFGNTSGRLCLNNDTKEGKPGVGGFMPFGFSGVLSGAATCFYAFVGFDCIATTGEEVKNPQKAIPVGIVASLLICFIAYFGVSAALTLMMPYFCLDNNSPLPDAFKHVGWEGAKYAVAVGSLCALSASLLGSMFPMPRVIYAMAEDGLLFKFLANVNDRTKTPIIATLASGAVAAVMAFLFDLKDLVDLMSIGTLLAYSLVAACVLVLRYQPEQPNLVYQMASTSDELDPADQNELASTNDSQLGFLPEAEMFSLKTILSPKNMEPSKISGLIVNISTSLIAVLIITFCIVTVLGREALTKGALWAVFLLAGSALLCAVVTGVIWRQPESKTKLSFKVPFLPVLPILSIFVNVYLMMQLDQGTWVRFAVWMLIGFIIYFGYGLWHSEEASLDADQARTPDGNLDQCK

CC(C)NCC(O)COc1cccc2ccccc12 (stereo not drawn) [Propranolol]
inhibition at 20 µM [1]: -0.9 ± 8.1% | inhibition at 200 µM [1]: -1.1 ± 7.8% | inhibition at 20 µM [2]: -21.6 ± 0.7% | inhibition at 200 µM [2]: -3.5 ± 2.1% | inhibition at 20 µM [3]: -27.2 ± 3.6% | inhibition at 200 µM [3]: -36.3 ± 9.5%

CCc1nc(N)nc(N)c1-c1ccc(Cl)cc1 [Pyrimethamine]
inhibition at 20 µM [1]: 6.9 ± 9.6% | inhibition at 200 µM [1]: 31.2 ± 2.3% | inhibition at 20 µM [2]: -25.8 ± 15.5% | inhibition at 200 µM [2]: 31.6 ± 2.7% | inhibition at 20 µM [3]: -37.1 ± 7.2% | inhibition at 200 µM [3]: 23.4 ± 0.3%

C=C[C@H]1CN2CC[C@H]1C[C@@H]2[C@@H](O)c1ccnc2ccc(OC)cc12 [Quinidine]
inhibition at 20 µM [1]: 29.1 ± 2.8% | inhibition at 200 µM [1]: 2.7 ± 1% | inhibition at 20 µM [2]: 4.4 ± 6.2% | inhibition at 200 µM [2]: 5.9 ± 1.9% | inhibition at 20 µM [3]: 4.4 ± 6.2% | inhibition at 200 µM [3]: -19.6 ± 7.7%

CCOC(=O)[C@H](CCc1ccccc1)N[C@@H](C)C(=O)N1[C@H](C(=O)O)C[C@@H]2CCC[C@@H]21 [Ramipril]
inhibition at 20 µM [1]: 0.3 ± 12% | inhibition at 200 µM [1]: -5.8 ± 2.3% | inhibition at 20 µM [2]: -0.7 ± 11.5% | inhibition at 200 µM [2]: -6.5 ± 2% | inhibition at 20 µM [3]: 0.1 ± 6.9% | inhibition at 200 µM [3]: -31.1 ± 6.9%

CNC(=C[N+](=O)[O-])NCCSCc1ccc(CN(C)C)o1 [Ranitidine]
inhibition at 20 µM [1]: 7.8 ± 1.8% | inhibition at 200 µM [1]: 2.9 ± 3.9% | inhibition at 20 µM [2]: -4 ± 0.4% | inhibition at 200 µM [2]: 6.8 ± 0.6% | inhibition at 20 µM [3]: -0.5 ± 5.8% | inhibition at 200 µM [3]: 6.1 ± 3.4%

COC(=O)[C@H]1[C@H]2C[C@@H]3c4[nH]c5cc(OC)ccc5c4CCN3C[C@H]2C[C@@H](OC(=O)c2cc(OC)c(OC)c(OC)c2)[C@@H]1OC [Reserpine]
inhibition at 20 µM [1]: 4.7 ± 7.9% | inhibition at 200 µM [1]: 5.2 ± 2.9% | inhibition at 20 µM [2]: 5 ± 7.5% | inhibition at 200 µM [2]: 12.5 ± 1.7% | inhibition at 20 µM [3]: 9 ± 2.6% | inhibition at 200 µM [3]: 24.2 ± 0.6%

CO[C@H]1/C=C/O[C@@]2(C)Oc3c(C)c(O)c4c(O)c(c(/C=N/N5CCN(C)CC5)c(O)c4c3C2=O)NC(=O)/C(C)=C\C=C\[C@H](C)[C@H](O)[C@@H](C)[C@@H](O)[C@@H](C)[C@H](OC(C)=O)[C@@H]1C [Rifampicin]
inhibition at 20 µM [1]: -8.1 ± 11.5% | inhibition at 20 µM [2]: -5.6 ± 7.8% | inhibition at 20 µM [3]: -5.5 ± 4.2%

CC(=O)S[C@@H]1CC2=CC(=O)CC[C@]2(C)[C@H]2CC[C@@]3(C)[C@@H](CC[C@@]34CCC(=O)O4)[C@H]12 [Spironolactone]
inhibition at 20 µM [1]: -3.7 ± 5.3% | inhibition at 200 µM [1]: -4.8 ± 6.6% | inhibition at 20 µM [2]: -3.9 ± 5.2% | inhibition at 200 µM [2]: -11.5 ± 2.8% | inhibition at 20 µM [3]: 3.2 ± 2.3% | inhibition at 200 µM [3]: -7.6 ± 2.1%

C=CC[C@@H]1/C=C(\C)C[C@H](C)C[C@H](OC)[C@H]2O[C@@](O)(C(=O)C(=O)N3CCCC[C@H]3C(=O)O[C@H](/C(C)=C/[C@@H]3CC[C@@H](O)[C@H](OC)C3)[C@H](C)[C@@H](O)CC1=O)[C@H](C)C[C@@H]2OC [Tacrolimus]
inhibition at 20 µM [1]: 28.5 ± 3.7% | inhibition at 200 µM [1]: 69.6 ± 4.8% | inhibition at 20 µM [2]: -10.3 ± 3.6% | inhibition at 200 µM [2]: 13.4 ± 1.1% | inhibition at 20 µM [3]: -14.2 ± 1.2% | inhibition at 200 µM [3]: -11.8 ± 2.4%

Clc1ccccc1CN1CCc2sccc2C1 [Ticlopidine]
inhibition at 20 µM [1]: 10.4 ± 4.4% | inhibition at 200 µM [1]: 31.7 ± 10.4% | inhibition at 20 µM [2]: -4.3 ± 4.6% | inhibition at 200 µM [2]: 31.4 ± 10.1% | inhibition at 20 µM [3]: -11.3 ± 8.3% | inhibition at 200 µM [3]: -33.5 ± 3.3%

Nc1nc(N)c2nc(-c3ccccc3)c(N)nc2n1 [Triamterene]
inhibition at 20 µM [1]: 5.1 ± 8.8% | inhibition at 200 µM [1]: 16.7 ± 1.6% | inhibition at 20 µM [2]: 10.7 ± 2.1% | inhibition at 200 µM [2]: 14.1 ± 0.5% | inhibition at 20 µM [3]: 12.6 ± 3.2% | inhibition at 200 µM [3]: -10.6 ± 0.6%

COc1cc(Cc2cnc(N)nc2N)cc(OC)c1OC [Trimethoprim]
inhibition at 20 µM [1]: 9.9 ± 4.2% | inhibition at 200 µM [1]: -16.3 ± 6.7% | inhibition at 20 µM [2]: -17 ± 1.9% | inhibition at 200 µM [2]: -13.8 ± 4.1% | inhibition at 20 µM [3]: -13.7 ± 2.8% | inhibition at 200 µM [3]: -68.1 ± 11.3%

CC(CN(C)C)CN1c2ccccc2CCc2ccccc21 (stereo not drawn) [Trimipramine]
inhibition at 20 µM [1]: 1.3 ± 2.4% | inhibition at 200 µM [1]: 24.2 ± 4.5% | inhibition at 20 µM [2]: 1.8 ± 4.5% | inhibition at 200 µM [2]: 34.1 ± 3.8% | inhibition at 20 µM [3]: -26.1 ± 11.5% | inhibition at 200 µM [3]: -13.4 ± 3.7%
